In the COVID Moonshot data (paper PMC7615835):
Values joined by “and” are separate entries in the source; they are usually repeats but may differ in a detail not shown here. Equal entries are not always repeated.

Legend:
[1] = target: SARS-CoV-2 Main Protease (SARS-CoV-2) (UniProt P0DTD1)
[2] = in vivo, iv, 0.5 mg/kg

O=C(Nc1cncc2ccccc12)C1CN(S(=O)(=O)C2CC2)Cc2ccc(Cl)cc21 (centres undefined)
IC50 [1]: 0.31 µM
AUC(0-inf) ([2]; mouse): 112 ng·h/mL and 120 ng·h/mL
AUC(0-t) ([2]; mouse): 109 ng·h/mL and 116 ng·h/mL
C0 ([2]; mouse): 314 ng/mL and 396 ng/mL
MRT inf ([2]; mouse): 17.5 min and 18 min
MRT last ([2]; mouse): 16 min and 15.5 min
Vd ([2]; mouse): 1.3 L/kg and 1.25 L/kg
clearance ([2]; mouse): 74.5 mL/min/kg and 69.4 mL/min/kg
half-life ([2]; mouse): 10.7 min and 12.7 min

COC(=O)C1(NC(=O)C(c2cccnc2)N(C(=O)c2cocn2)c2ccc(C(C)(C)C)cc2)CCCC1 (centres undefined)
IC50 [1]: 5.26 µM
CC50 (vero): > 10 µM

CC1Cn2nccc2CN1C(=O)CC1(C(=O)Nc2cncc3ccccc23)CCOc2ccc(Cl)cc21 (centres undefined)
IC50 [1]: 1.56 µM and 2.85 µM
CC50 (a549): > 9.99 µM

COC(=O)N1Cc2ccc(Cl)cc2C(C(=O)Nc2cncc3ccccc23)C1 (centres undefined)
IC50 [1]: 0.224 µM
AUC(0-inf) ([2]; rat): 152 ng·h/mL and 94.2 ng·h/mL
AUC(0-t) ([2]; rat): 150 ng·h/mL and 93.6 ng·h/mL
C0 ([2]; rat): 411 ng/mL and 345 ng/mL
MRT inf ([2]; rat): 20.4 min and 24.1 min
MRT last ([2]; rat): 22.5 min and 19.4 min
Vd ([2]; rat): 1.32 L/kg and 1.82 L/kg
clearance ([2]; rat): 54.9 mL/min/kg and 88.6 mL/min/kg
half-life ([2]; rat): 20 min and 18.2 min

CC(C)(C)c1ccc(N(C(=O)c2cocn2)C(C(=O)NCC2CCCO2)c2cccnc2)cc1 (centres undefined)
IC50 [1]: 5.15 µM
CC50 (vero): > 10 µM

CS(=O)(=O)c1ccc2cncc(NC(=O)C3CNC(=O)c4ccc(Cl)cc43)c2c1 (centres undefined)
IC50 [1]: 2.74 µM
AUC(0-inf) ([2]; rat): 177 ng·h/mL and 160 ng·h/mL
AUC(0-t) ([2]; rat): 175 ng·h/mL and 157 ng·h/mL
C0 ([2]; rat): 636 ng/mL and 540 ng/mL
MRT inf ([2]; rat): 25.6 min and 22 min
MRT last ([2]; rat): 20.7 min and 22.8 min
Vd ([2]; rat): 1.08 L/kg and 1.38 L/kg
clearance ([2]; rat): 49 mL/min/kg and 54.2 mL/min/kg
half-life ([2]; rat): 19.3 min and 23.4 min

CNS(=O)(=O)N1Cc2ccc(Cl)cc2C(C(=O)Nc2cncc3ccccc23)C1 (centres undefined)
IC50 [1]: 0.149 µM
AUC(0-inf) ([2]; rat): 185 ng·h/mL and 255 ng·h/mL and 157 ng·h/mL
AUC(0-t) ([2]; rat): 183 ng·h/mL and 254 ng·h/mL and 155 ng·h/mL
C0 ([2]; rat): 507 ng/mL and 850 ng/mL and 519 ng/mL
MRT inf ([2]; rat): 31.6 min and 38.9 min and 23.9 min
MRT last ([2]; rat): 36.1 min and 30.6 min and 22.1 min
Vd ([2]; rat): 1.75 L/kg and 1.07 L/kg and 1.5 L/kg
clearance ([2]; rat): 45.1 mL/min/kg and 33.3 mL/min/kg and 62.7 mL/min/kg
half-life ([2]; rat): 41 min and 32.2 min and 20 min

O=C(Nc1cncc2ccccc12)C1CCOc2c(OCc3ccncc3)cc(Cl)cc21 (centres undefined)
IC50 [1]: 3.45 µM
CC50 (a549): > 9.99 µM

COc1cccc2[nH]c(=O)cc(C(=O)NCCOc3ccccc3OCC3CC3)c12
CC50 (a549): > 10 µM

O=C(Cc1cc(F)cc(Cl)c1)Nc1cncc2ccccc12
IC50 [1]: 0.368 µM and 0.398 µM
CC50 (a549): > 9.99 µM

O=C(Cc1ccc(Cl)c(Cl)c1)Nc1cncc2cnccc12
IC50 [1]: 1.85 µM
CC50 (a549): > 9.99 µM

Cc1cccc2cncc(NC(=O)Cc3cccc(Cl)c3)c12
IC50 [1]: 0.331 µM
AUC(0-inf) ([2]; rat): 206 ng·h/mL and 112 ng·h/mL
AUC(0-t) ([2]; rat): 203 ng·h/mL and 111 ng·h/mL
C0 ([2]; rat): 934 ng/mL and 490 ng/mL
MRT inf ([2]; rat): 21.8 min and 18.2 min
MRT last ([2]; rat): 16.2 min and 19.9 min
Vd ([2]; rat): 0.737 L/kg and 1.83 L/kg
clearance ([2]; rat): 40.4 mL/min/kg and 84.8 mL/min/kg
half-life ([2]; rat): 24.9 min and 34.8 min

CN(C)C(=O)C[C@]1(C(=O)Nc2cncc3ccccc23)CCOc2ccc(Cl)cc21 (stereo in doubt)
IC50 [1]: 1.3 µM
CC50 (vero): > 9.99 µM

COC1(C(=O)Nc2cncc3ccc(S(C)(=O)=O)cc23)CCOc2ccc(Cl)cc21 (centres undefined)
IC50 [1]: 0.426 µM and 0.423 µM
AUC(0-inf) ([2]; mouse): 51.9 ng·h/mL and 61.9 ng·h/mL
AUC(0-t) ([2]; mouse): 50.3 ng·h/mL
C0 ([2]; mouse): 142 ng/mL and 157 ng/mL
MRT inf ([2]; mouse): 31.3 min and 26.9 min
MRT last ([2]; mouse): 27.4 min and 24.5 min
Vd ([2]; mouse): 5.03 L/kg and 3.65 L/kg
clearance ([2]; mouse): 161 mL/min/kg and 135 mL/min/kg
half-life ([2]; mouse): 25.3 min and 22.1 min

O=C(Nc1cncc2ccccc12)C(NC(=O)[C@@H]1CCCO1)c1cccc(Cl)c1 (stereo in doubt)
IC50 [1]: 2.29 µM
CC50 (a549): > 9.99 µM

O=C(Cc1cccc(Cl)c1)Nc1cncc2c(F)cccc12
IC50 [1]: 0.89 µM
AUC(0-inf) ([2]; rat): 140 ng·h/mL and 138 ng·h/mL
AUC(0-t) ([2]; rat): 139 ng·h/mL and 136 ng·h/mL
C0 ([2]; rat): 515 ng/mL and 498 ng/mL
MRT inf ([2]; rat): 19.8 min and 20.1 min
MRT last ([2]; rat): 19.1 min and 18.7 min
Vd ([2]; rat): 1.02 L/kg
clearance ([2]; rat): 50.8 mL/min/kg and 51.6 mL/min/kg
half-life ([2]; rat): 17.4 min and 18.2 min

O=C(Cc1cccc(Cl)c1)Nc1cncc2cn[nH]c12
IC50 [1]: 2.1 µM
AUC(0-inf) ([2]; rat): 216 ng·h/mL and 364 ng·h/mL
AUC(0-t) ([2]; rat): 216 ng·h/mL and 356 ng·h/mL
C0 ([2]; rat): 986 ng/mL and 1030 ng/mL
MRT inf ([2]; rat): 25.6 min and 15.7 min
MRT last ([2]; rat): 15.4 min and 23.3 min
Vd ([2]; rat): 0.604 L/kg and 0.594 L/kg
clearance ([2]; rat): 38.6 mL/min/kg and 25.6 mL/min/kg
half-life ([2]; rat): 14.4 min and 19.9 min

O=C(Cc1cccc(Cl)c1)Nc1cncc2cc(F)ccc12
IC50 [1]: 1.47 µM
CC50 (a549): > 9.99 µM

C=CC(=O)N(C(=O)[C@H]1CCOc2ccc(Cl)cc21)c1cncc2ccccc12 (stereo in doubt)
CC50 (a549): > 9.99 µM
CC50 (vero): > 9.99 µM

O=C(Nc1cncc2ccncc12)C1CCNc2cc(Cl)c(Cl)cc21 (centres undefined)
CC50 (a549): > 9.99 µM

NC(=O)c1cc2c(NC(=O)C3CCOc4ccc(Cl)cc43)cncc2s1 (centres undefined)
IC50 [1]: 0.761 µM
AUC(0-inf) ([2]; rat): 488 ng·h/mL and 612 ng·h/mL
AUC(0-t) ([2]; rat): 485 ng·h/mL and 604 ng·h/mL
C0 ([2]; rat): 706 ng/mL and 898 ng/mL
MRT inf ([2]; rat): 77.4 min and 69 min
MRT last ([2]; rat): 65.4 min and 70.2 min
Vd ([2]; rat): 1.18 L/kg and 1.06 L/kg
clearance ([2]; rat): 17.1 mL/min/kg and 13.7 mL/min/kg
half-life ([2]; rat): 75 min and 84 min

O=C(Cc1cccc(Cl)c1)Nc1cnccc1C1CC1
IC50 [1]: 7.17 µM
AUC(0-inf) ([2]; rat): 77 ng·h/mL and 54.5 ng·h/mL
AUC(0-t) ([2]; rat): 74.1 ng·h/mL and 53.2 ng·h/mL
C0 ([2]; rat): 260 ng/mL and 176 ng/mL
MRT inf ([2]; rat): 20.7 min and 17.8 min
MRT last ([2]; rat): 15.4 min and 18.5 min
Vd ([2]; rat): 1.92 L/kg and 3.14 L/kg
clearance ([2]; rat): 108 mL/min/kg and 153 mL/min/kg
half-life ([2]; rat): 12.5 min and 15.8 min

Cc1cc2c(NC(=O)C3CCOc4ccc(Cl)cc43)cncc2s1 (centres undefined)
IC50 [1]: 0.228 µM
AUC(0-inf) ([2]; rat): 122 ng·h/mL and 130 ng·h/mL
AUC(0-t) ([2]; rat): 118 ng·h/mL and 128 ng·h/mL
C0 ([2]; rat): 342 ng/mL and 378 ng/mL
MRT inf ([2]; rat): 26.3 min and 28.9 min
MRT last ([2]; rat): 25.1 min and 24.1 min
Vd ([2]; rat): 1.76 L/kg and 1.52 L/kg
clearance ([2]; rat): 60.8 mL/min/kg and 58 mL/min/kg
half-life ([2]; rat): 22.4 min and 25 min

CC(C)(C)c1ccc(N(C(=O)c2cocn2)C(C(=O)NC2COC2)c2cccnc2)cc1 (centres undefined)
IC50 [1]: 4.07 µM
CC50 (vero): > 10 µM

O=C1CC(C(=O)Nc2cncc3ccccc23)c2cc(Cl)c(Cl)cc2N1 (centres undefined)
IC50 [1]: 0.196 µM and 0.356 µM
AUC(0-inf) ([2]; mouse): 199 ng·h/mL and 230 ng·h/mL
AUC(0-t) ([2]; mouse): 197 ng·h/mL and 226 ng·h/mL
C0 ([2]; mouse): 268 ng/mL and 390 ng/mL
MRT inf ([2]; mouse): 44.9 min and 49.9 min
MRT last ([2]; mouse): 42.4 min and 45.4 min
Vd ([2]; mouse): 1.88 L/kg and 1.81 L/kg
clearance ([2]; mouse): 41.9 mL/min/kg and 36.2 mL/min/kg
half-life ([2]; mouse): 34.4 min and 43.6 min

CC1CN(S(C)(=O)=O)CCC1NC(=O)CC1(C(=O)Nc2cncc3ccccc23)CCOc2ccc(Cl)cc21 (centres undefined)
IC50 [1]: 2.79 µM
CC50 (a549): > 9.99 µM

Cc1ccc(CC(=O)Nc2cncc3ccccc23)cc1Cl
IC50 [1]: 1.09 µM
CC50 (a549): > 9.99 µM

Cc1nc2n(n1)CC(C(=O)NC(C)(C(=O)Nc1cncc3ccccc13)c1ccc(Cl)c(Cl)c1)CC2 (centres undefined)
IC50 [1]: 3.44 µM and 6.76 µM
CC50 (a549): > 9.99 µM

Cc1c(N)cncc1NC(=O)Cc1cccc(Cl)c1
IC50 [1]: 4.22 µM
AUC(0-inf) ([2]; rat): 210 ng·h/mL and 187 ng·h/mL
AUC(0-t) ([2]; rat): 209 ng·h/mL and 185 ng·h/mL
C0 ([2]; rat): 485 ng/mL and 446 ng/mL
MRT inf ([2]; rat): 28.8 min and 30.5 min
MRT last ([2]; rat): 29.5 min and 27.3 min
Vd ([2]; rat): 1.21 L/kg and 1.28 L/kg
clearance ([2]; rat): 39.8 mL/min/kg and 44.6 mL/min/kg
half-life ([2]; rat): 28.2 min and 25 min

O=C(Cc1cccc(Cl)c1)Nc1cnn2ccccc12
IC50 [1]: 11.3 µM
AUC(0-inf) ([2]; rat): 209 ng·h/mL and 179 ng·h/mL
AUC(0-t) ([2]; rat): 201 ng·h/mL and 176 ng·h/mL
C0 ([2]; rat): 652 ng/mL and 621 ng/mL
MRT inf ([2]; rat): 31.1 min
MRT last ([2]; rat): 25.4 min and 27.5 min
Vd ([2]; rat): 1.24 L/kg and 1.44 L/kg
clearance ([2]; rat): 39.8 mL/min/kg and 46.6 mL/min/kg
half-life ([2]; rat): 29.4 min and 33.7 min

Cc1ccncc1NC(=O)Cc1cc(Cl)cc(OCc2cc(-c3ccc(Cl)cc3)no2)c1
IC50 [1]: > 99.5 µM

Cc1cnc(Nc2cc(Cl)cc(CC(=O)Nc3cncc4ccccc34)c2)c([N+](=O)[O-])c1
IC50 [1]: 1.86 µM

O=C(Nc1ccccc1)[C@H]1CN(C(=O)CCl)CCN1S(=O)(=O)c1ccsc1 (stereo in doubt)
IC50 [1]: 0.386 µM

Cn1ccn2c(CNC(=O)c3ccc4ncsc4c3)nnc2c1=O
IC50 [1]: > 99.5 µM

Cc1ccc(S(=O)(=O)N2CCN(C(=O)CCl)C[C@H]2C(=O)NC2CCCCC2)cc1 (stereo in doubt)
IC50 [1]: 4.48 µM

O=C1OC(c2cccs2)=N/C1=C\c1ccc(N2CCOCC2)s1
IC50 [1]: 0.696 µM

CS(=O)(=O)c1ccc2cncc(NC(=O)C3CCOc4cc(F)c(Cl)cc43)c2c1 (centres undefined)
IC50 [1]: 1.89 µM and 1.27 µM
CC50 (a549): > 9.99 µM
